In brackets after ≈: the same amount, converted by molar mass. Where two headings read alike, the source gives them in different places.
What was measured:
S. aureus ATCC 29213 = test: MIC against S. aureus ATCC 29213; format: cell-based, Staphylococcus aureus
Method: (§1) The microbiological activity of clindamycin analogs was evaluated by measuring the minimum inhibitory concentrations (MIC) of each compound against Staphylococcus aureus (S. aureus) and Propionibacterium acnes (P. acnes). These two microorganisms were selected, as they are commonly known to be the contributing factors for acne. The compounds evaluated were the following: • a. […] Clindamycin sulfone (CSO2) and its salts • d. Clindamycin phosphate • e.

P. acnes ATCC 11827 = test: MIC against P. acnes ATCC 11827; format: cell-based, Propionibacterium acnes
Method: as §1

[1] = Stability studies with benzoyl peroxide in buffer solutions; format: physicochemical; details: 1% analog with 5% BPO, pH 3 buffer, 50° C.
Method: The concentrations of each of the clindamycin analogs and BPO in the mixtures were 1% (w/w) and 5% (w/w), respectively.
Samples were prepared by dissolving each of the clindamycin analogs and suspending the BPO powder in the buffer solutions of different pHs. Samples were placed either at RT or at 50° C. Samples were pulled at time intervals and tested for the appropriate clindamycin analog and pH.
The figures show the plots of the percent remaining (% of initial) of the clindamycin analog versus time. The percent of initial is obtained by normalizing the concentration at each time point to the initial concentration.

S. aureus ATCC 6538 = test: MIC against S. aureus ATCC 6538; format: cell-based; details: Staphylococcus aureus, ATCC6538
Method: as §1

P. acnes ATCC 1127 = test: MIC against P. acnes ATCC 1127; format: cell-based, Propionibacterium acnes; details: Cutibacterium acnes, ATCC1127
Method: as §1

[2] = Staphylococcus aureus, ATCC29213, read-out: MIC
[3] = Cutibacterium acnes, ATCC11827, read-out: MIC

MIC (S. aureus ATCC 29213) | MIC (P. acnes ATCC 11827) | Structure (SMILES) | also measured
16 µg/mL | 16 µg/mL | CCCC1CC(C(=O)NC(C(C)Cl)C2OC([S+](C)[O-])C(O)C(O)C2O)N(C)C1.O=C(O)CCC(=O)O (centres unmarked) [CSO A succinate] | 
2 µg/mL | 0.5 µg/mL | CCCC1CC(C(=O)NC(C(C)Cl)C2OC([S+](C)[O-])C(O)C(O)C2O)N(C)C1.Cl (centres unmarked) [CSO B HCl] | 
2 µg/mL | 0.5 µg/mL | CCCC1CC(C(=O)NC(C(C)Cl)C2OC([S+](C)[O-])C(O)C(O)C2O)N(C)C1.O=C(O)c1ccccc1 (centres unmarked) [CSO B benzoate] | 
2 µg/mL | 0.5 µg/mL | CCCC1CC(C(=O)NC(C(C)Cl)C2OC([S+](C)[O-])C(O)C(O)C2O)N(C)C1.O=C(O)CC(O)(CC(=O)O)C(=O)O (centres unmarked) [CSO B citrate] | 
2 µg/mL | 0.5 µg/mL | CCCC1CC(C(=O)NC(C(C)Cl)C2OC([S+](C)[O-])C(O)C(O)C2O)N(C)C1.O=C(O)C=CC(=O)O (centres unmarked) [CSO B fumarate] | 

Second part, the compound before the results:

Structure (SMILES) | MIC (S. aureus ATCC 29213) | MIC (P. acnes ATCC 11827) | also measured
CCCC1CC(C(=O)NC(C(C)Cl)C2OC(S(C)(=O)=O)C(O)C(O)C2O)N(C)C1.Cl (centres unmarked) [CSO2 HCl] | 1 µg/mL | 0.5 µg/mL | 
CCCC1CC(C(=O)NC(C(C)Cl)C2OC(S(C)(=O)=O)C(O)C(O)C2O)N(C)C1.O=S(=O)(O)O (centres unmarked) [CSO2 sulfate] | 1 µg/mL | 0.5 µg/mL | 
CCC[C@@H]1CC(C(=O)NC(C(C)Cl)[C@H]2O[C@H](S(C)(=O)=O)[C@H](O)[C@@H](O)[C@H]2O)N(C)C1 (some centres unmarked) [CSO2, Clindamycin sulfone] |  |  | MIC (S. aureus ATCC 29213; [2]): 1 to 2 µg/mL (≈ 2.19 to 4.38 µM); MIC (P. acnes ATCC 11827; [3]): 0.5 to 1 µg/mL (≈ 1.09 to 2.19 µM); remained in the solution (% of initial) ([1]; after 8 weeks of storage): about 85%; remaining in the samples (% of initial) ([1]; after 12 weeks of storage): about 70%
CCC[C@@H]1C[C@@H](C(=O)N[C@@H]([C@H]2O[C@H]([S+](C)[O-])[C@H](O)[C@@H](O)[C@H]2O)[C@H](C)Cl)N(C)C1.Cl (some centres unmarked) [CSO A HCl] | 16 µg/mL | 8 µg/mL | 
CCCC1CC(C(=O)NC(C(C)Cl)C2OC([S+](C)[O-])C(O)C(O)C2O)N(C)C1.O=C(O)C=CC(=O)O (centres unmarked) [CSO A fumarate] | 16 µg/mL | 8 µg/mL | 
CCCC1CC(C(=O)NC(C(C)Cl)C2OC([S+](C)[O-])C(O)C(O)C2O)N(C)C1.O=C(O)C=CC(=O)O (centres unmarked) [CSO A maleate] | 16 µg/mL | 16 µg/mL | 
CCC[C@@H]1C[C@@H](C(=O)N[C@@H]([C@H]2O[C@H](SC)[C@H](OP(=O)(O)O)[C@@H](O)[C@H]2O)[C@H](C)Cl)N(C)C1 [Clindamycin phosphate USP, Clindamycin phosphate, reference compound] |  |  | MIC (S. aureus ATCC 6538): 200 µg/mL; MIC (P. acnes ATCC 1127): 200 µg/mL; MIC (S. aureus ATCC 29213; [2]): 16 to 32 µg/mL; MIC (P. acnes ATCC 11827; [3]): 2 to 4 µg/mL
CC[C@H]1OC(=O)[C@H](C)[C@@H](O[C@H]2C[C@@](C)(OC)[C@@H](O)[C@H](C)O2)[C@H](C)[C@@H](O[C@@H]2O[C@H](C)C[C@H](N(C)C)[C@H]2O)[C@](C)(O)C[C@@H](C)C(=O)[C@H](C)[C@@H](O)[C@]1(C)O [Erythromycin USP, Erythromycin, reference compound] |  |  | MIC (S. aureus ATCC 6538): < 0.8 µg/mL; MIC (P. acnes ATCC 1127): 1.6 µg/mL (≈ 2.18 µM); MIC (S. aureus ATCC 29213; [2]): 0.25 to 0.5 µg/mL (≈ 0.341 to 0.681 µM); MIC (P. acnes ATCC 11827; [3]): 0.062 µg/mL (≈ 0.0845 µM)

From patent publication US20080033031A1, “ANTIBIOTIC COMPOUNDS, COMPOSITIONS AND METHODS OF TREATMENT” (priority 2004, published 2008)
